Measured values: patent EP1227083A1, “3-AMINOPIPERIDINE DERIVATIVES AS INTEGRIN $g(a)v$g(b)3 ANTAGONISTS” (Meiji Seika Kaisha, Ltd., priority 1999, dated 2001)
“And” between values parts separate entries of the source, which are not always exact repeats. Equal values may be shown once. Read-outs that look alike come from different tables or passages of the source.

Legend:
[1] = target: GP IIb/IIIa (Homo sapiens, UniProt P05106+P08514); assay: GP IIb/IIIa antagonistic activity (method of Pharmacological Test 2 in WO 94/21599); assay type: binding; settings: read-out: IC50 (GP IIb/IIIa antagonistic activity)
Experimental: GP IIb/IIIa antagonistic activity was measured for compounds according to the present invention. The measurement of the GP IIb/IIIa antagonistic activity was carried out according to the method described in Pharmacological Test 2 in WO 94/21599.

[2] = target: T1, Integrin αvβ3 (vitronectin receptor) (Homo sapiens, UniProt P05106+P06756); assay: αvβ3 Binding assay (vitronectin-vitronectin receptor binding assay)
T1 construct: a vitronectin receptor (protein content: 118 µg/ml) purified from the human placenta; from tissue; host or cells: human placenta
Experimental: Pharmacological Test Example 1: αvβ3 Binding assay
Integrin αvβ3 antagonistic activity of compounds according to the present invention was measured in a vitronectin-vitronectin receptor binding assay system in accordance with the method of Kouns et al. (W. C. Kouns, D. Kirchhofer, P. Hadvary, A. Edenhofer, T. Weller, G. Pfenninger, H. R. Baumgartner, L. K. Jennings and B. Steiner, Blood, 80, 2539-2547 (1992)).
Specifically, a vitronectin receptor (protein content: 118 µg/ml) purified from the human placenta in accordance with the method of Pytela et al. (R. Pytela, M. D. Pierschbacher, S. Argraves, S. Suzuki, and E. Ruoslahti, Method in Enzymology, 144, 475-489 (1987)) was diluted 50 times with TBS (20 mM Tris-HCl, 150 mM NaCl, 1 mM CaCl2, 1 mM MgCl2, pH 7.4), and distributed and coated on wells (50 µl/well) of a plate (Maxisorp, Nunc, 96 well Immuno Plate). The plate was then allowed to stand at 4°C for one day, washed twice with TBS (200 µl/well), and then subjected to blocking with TBS (150 µl/well) containing 1% bovine serum albumin (SIGMA) at 4°C overnight. After washing twice with TBS (200 µl/well), 50 µl of vitronectin (CALBIOCHEM) adjusted to 0.2 µg/ml by the addition of TBS (TBS-Tween) containing 0.01% Tween-20 was mixed with 50 µl of each test compound adjusted to each concentration in wells, and a reaction was allowed to proceed at room temperature for 4 hr. After the completion of the reaction, the wells were washed three times with TBS-Tween. A solution prepared by diluting anti-vitronectin rabbit antiserum (CHEMICON) 500 times with TBS-Tween was added as a primary antibody in an amount of 50 µl/well, and a reaction was allowed to proceed at room temperature for 1.5 hr. After washing three times with 200 µl/well of TBS-Tween, a peroxidase (POD)-labeled anti-rabbit IgG antibody solution (CAPPEL) diluted 500 times with TBS-Tween was added as a secondary antibody in an amount of 50 µl/well, and a reaction was allowed to proceed at room temperature for 1.5 hr. After washing three times with TBS-Tween (200 µl/well), ABTS (2,2'-azino-bis(3-ethylbenzthiazoline-6-sulfonic acid), SIGMA) was adjusted to 1 mg/ml by the addition of a ten-fold diluted POD-buffer (ZYMED), and was added in an amount of 50 µl/well, and a reaction was allowed to proceed for 5 to 10 min. A 0.1 M citric acid buffer (pH 4.3) containing 0.05% NaN3 was added in an amount of 50 µl/well to stop the reaction, followed by the measurement of the absorbance at 415 nm with a microplate reader (MTP 32, Corona Electric) (reference: 675 nm). The total binding was defined as the absorbance after a reaction using 50 µl of TBS-Tween instead of the test compound, and the non-specific binding (100% inhibition) was defined as the absorbance after a reaction using 50 µl of TBS-Tween containing 2 x 10^-3 M RGDS. The inhibition was calculated by the following equation: Inhibition (%) = 100-((absorbance in the presence of test compound - non-specific binding))/((total binding - non-specific binding))× 100 [formula]
IC50 was determined from a primary regression line of the logarithm of each concentration of the test compound and the logarithm of (100 - inhibition)/inhibition.

[3] = Oral absorption in rats; assay type: in vivo; settings: data not shown
[4] = system: human platelet aggregation; assay: Human platelet aggregation inhibitory activity (method of Pharmacological Test 1 in WO 94/21599); assay type: cell-based
Experimental: Human platelet aggregation inhibitory activity was measured for compounds according to the present invention. The measurement of the human platelet aggregation inhibitory activity was carried out according to the method described in Pharmacological Test 1 in WO 94/21599.

[5] = system: human vascular smooth muscle cells; assay: Inhibitory activity against adhesion of human vascular smooth muscle cells to vitronectin; assay type: cell-based; settings: immobilized human vitronectin
Experimental: Pharmacological Test Example 3: Inhibitory activity against adhesion of human vascular smooth muscle cells to vitronectin
The adhesion of human vascular smooth muscle cells to immobilized human vitronectin was measured in accordance with the method of Liaw et al. (Liaw L, Almeida M, Hart CE, Schwartz SM, and Giachelli CM, Circulation Research, 74 (2), 214-224 (1994)).
A Dulbecco's phosphate buffer (Dulbecco's PBS(-), Nissui Pharmaceutical Co., Ltd.) solution of human plasma-derived vitronectin (CALBIOCHEM) adjusted to a concentration of 4 µg/ml was first added to wells (50 µl/well) of a microplate (Maxisorp, Nunc), and a reaction for immobilization was allowed to proceed at 4°C overnight. […]
Next, 50 µl of a Dulbecco's modified Eagle's basal medium containing 0.1% of bovine serum albumin with a medicament added thereto was added to the wells of the human vitronectin-coated assay microplate, followed by pre-cultivation under 5% carbon dioxide at 37°C for 10 min. […] The absorbance of the microplate thus obtained was measured at 595 nm. […] The inhibition was calculated by the following equation. IC50 was determined from a primary regression line of the logarithm of each concentration of the test compound and the logarithm of (100 - inhibition)/inhibition. […]

[6] = read-out: IC50 (integrin αvβ3 antagonistic activity); vitronectin binding to vitronectin receptor purified from the human placenta
[7] = vitronectin binding to vitronectin receptor purified from the human placenta; read-out: IC50 (integrin αvβ3 antagonistic activity)

T1 sequence (P06756 31-889 limits assumed): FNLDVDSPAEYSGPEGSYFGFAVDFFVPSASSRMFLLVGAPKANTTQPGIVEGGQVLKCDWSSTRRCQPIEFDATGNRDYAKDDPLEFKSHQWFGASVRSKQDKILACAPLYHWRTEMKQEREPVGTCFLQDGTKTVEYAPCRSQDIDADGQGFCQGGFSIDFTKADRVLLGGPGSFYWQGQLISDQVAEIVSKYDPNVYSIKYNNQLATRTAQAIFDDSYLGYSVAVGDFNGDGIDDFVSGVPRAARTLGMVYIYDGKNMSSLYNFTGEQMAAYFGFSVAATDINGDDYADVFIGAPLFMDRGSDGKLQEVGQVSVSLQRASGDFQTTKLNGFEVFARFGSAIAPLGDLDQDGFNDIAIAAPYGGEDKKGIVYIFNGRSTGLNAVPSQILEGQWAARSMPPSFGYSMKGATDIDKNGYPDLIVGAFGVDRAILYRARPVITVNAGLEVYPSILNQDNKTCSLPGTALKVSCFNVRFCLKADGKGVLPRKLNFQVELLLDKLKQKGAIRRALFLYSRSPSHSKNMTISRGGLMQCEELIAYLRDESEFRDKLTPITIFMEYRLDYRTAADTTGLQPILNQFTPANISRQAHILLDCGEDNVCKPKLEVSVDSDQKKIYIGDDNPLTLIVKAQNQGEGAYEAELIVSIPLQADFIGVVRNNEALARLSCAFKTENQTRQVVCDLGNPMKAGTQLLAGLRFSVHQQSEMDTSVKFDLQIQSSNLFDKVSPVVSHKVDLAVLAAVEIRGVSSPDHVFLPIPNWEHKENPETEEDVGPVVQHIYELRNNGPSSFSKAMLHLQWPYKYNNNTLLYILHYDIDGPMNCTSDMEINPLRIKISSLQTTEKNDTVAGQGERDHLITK
T1 sequence (P06756 891-1048 partner limits assumed): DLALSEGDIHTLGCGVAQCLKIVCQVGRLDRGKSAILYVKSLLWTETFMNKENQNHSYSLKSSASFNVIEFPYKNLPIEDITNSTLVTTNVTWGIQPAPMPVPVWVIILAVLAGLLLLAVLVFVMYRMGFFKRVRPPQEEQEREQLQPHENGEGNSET
T1 sequence (P05106 27-788): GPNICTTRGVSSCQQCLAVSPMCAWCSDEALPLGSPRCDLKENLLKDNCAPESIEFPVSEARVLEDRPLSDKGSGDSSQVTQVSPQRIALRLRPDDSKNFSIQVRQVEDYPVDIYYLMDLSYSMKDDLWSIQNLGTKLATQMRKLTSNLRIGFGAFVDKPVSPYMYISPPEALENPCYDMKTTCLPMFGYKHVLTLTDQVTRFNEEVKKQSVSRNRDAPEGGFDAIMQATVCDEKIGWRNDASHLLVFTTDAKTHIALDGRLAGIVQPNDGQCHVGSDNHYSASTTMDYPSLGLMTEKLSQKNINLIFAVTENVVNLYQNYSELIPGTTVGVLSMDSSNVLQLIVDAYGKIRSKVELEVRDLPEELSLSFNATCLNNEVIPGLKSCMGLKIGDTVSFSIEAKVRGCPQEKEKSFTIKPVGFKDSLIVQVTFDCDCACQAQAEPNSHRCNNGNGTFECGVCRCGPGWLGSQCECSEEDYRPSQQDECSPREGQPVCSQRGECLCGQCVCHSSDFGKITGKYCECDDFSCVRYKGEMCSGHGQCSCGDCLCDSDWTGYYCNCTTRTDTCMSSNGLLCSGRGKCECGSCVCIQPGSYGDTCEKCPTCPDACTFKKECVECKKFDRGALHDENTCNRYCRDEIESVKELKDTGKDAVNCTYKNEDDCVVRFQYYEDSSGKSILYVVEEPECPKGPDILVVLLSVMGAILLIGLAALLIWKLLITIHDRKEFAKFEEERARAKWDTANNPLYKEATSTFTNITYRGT
Chain of GP IIb/IIIa (P08514 32-887 limits assumed): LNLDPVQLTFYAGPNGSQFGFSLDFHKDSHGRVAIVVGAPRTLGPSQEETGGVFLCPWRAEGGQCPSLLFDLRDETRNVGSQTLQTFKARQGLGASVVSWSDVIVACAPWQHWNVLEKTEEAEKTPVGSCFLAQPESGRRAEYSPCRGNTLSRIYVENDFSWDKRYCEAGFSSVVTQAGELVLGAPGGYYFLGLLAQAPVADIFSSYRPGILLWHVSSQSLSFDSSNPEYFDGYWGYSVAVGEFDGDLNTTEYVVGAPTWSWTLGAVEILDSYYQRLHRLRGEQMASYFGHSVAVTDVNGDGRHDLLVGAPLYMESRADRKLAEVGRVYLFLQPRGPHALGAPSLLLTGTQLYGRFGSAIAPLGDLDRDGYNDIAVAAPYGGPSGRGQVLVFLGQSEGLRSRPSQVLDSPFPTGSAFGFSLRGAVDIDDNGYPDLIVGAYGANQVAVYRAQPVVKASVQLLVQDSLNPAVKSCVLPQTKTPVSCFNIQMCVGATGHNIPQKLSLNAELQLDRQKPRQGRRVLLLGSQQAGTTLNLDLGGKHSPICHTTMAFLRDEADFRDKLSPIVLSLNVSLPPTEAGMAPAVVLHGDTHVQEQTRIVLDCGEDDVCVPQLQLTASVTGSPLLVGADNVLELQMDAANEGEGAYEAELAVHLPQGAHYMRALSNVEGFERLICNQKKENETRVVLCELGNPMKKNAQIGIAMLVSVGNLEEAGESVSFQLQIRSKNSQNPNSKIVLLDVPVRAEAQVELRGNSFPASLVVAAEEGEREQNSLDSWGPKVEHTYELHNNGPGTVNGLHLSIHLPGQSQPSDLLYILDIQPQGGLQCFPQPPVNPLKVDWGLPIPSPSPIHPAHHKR
Chain of GP IIb/IIIa (P08514 891-1039 partner limits assumed): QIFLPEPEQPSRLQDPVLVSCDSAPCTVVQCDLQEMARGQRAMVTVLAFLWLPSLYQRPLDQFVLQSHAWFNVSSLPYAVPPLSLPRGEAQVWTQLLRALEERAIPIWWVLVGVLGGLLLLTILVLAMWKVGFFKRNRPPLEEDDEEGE
Chain of GP IIb/IIIa (P05106 27-788): as the sequence (P05106 27-788) above

SMILES	IC50 [1]	other results
O=C(NC[C@H](NS(=O)(=O)c1ccccc1)C(=O)O)c1ccc(N2CCCC(Nc3ncccn3)C2)cc1 (stereo partly drawn) [Example 2, (2S)-Benzenesulfonylamino-3-[4-{3-(pyrimidin-2-ylamino)piperidin-1-yl}benzoylamino]propionic acid]	≤ 1.1 nM	
O=C(NC[C@H](NS(=O)(=O)c1ccccc1)C(=O)O)c1ccc(N2CCCC(NC3=NCCCN3)C2)cc1 (stereo partly drawn) [Example 3, (2S)-Benzenesulfonylamino-3-[4-{3-(1,4,5,6-tetrahydropyrimidin-2-ylamino)piperidin-1-yl}benzoylamino]propionic acid]	≤ 1.1 nM	IC50 [2, 6]: ≤ 1 nM
O=C(NC[C@H](NS(=O)(=O)c1ccccc1)C(=O)O)c1ccc(N2CCC[C@H](Nc3ncccn3)C2)c(F)c1 [Example 5, (2S)-Benzenesulfonylamino-3-[3-fluoro-4-{(3S)-(pyrimidin-2-ylamino)piperidin-1-yl}benzoylamino]-propionic acid]		oral absorption [3]: had oral absorption
O=C(NC[C@H](NS(=O)(=O)c1ccccc1)C(=O)O)c1ccc(N2CCC[C@H](NC3=NCCCN3)C2)c(F)c1 [Example 6, (2S)-Benzenesulfonylamino-3-[3-fluoro-4-{(3S)-(1,4,5,6-tetrahydropyrimidin-2-ylamino)piperidin-1-yl}benzoylamino]propionic acid]	≤ 1.1 nM and 1.1 nM	
O=C(NC[C@H](NS(=O)(=O)c1ccccc1)C(=O)O)c1ccc(N2CCC[C@@H](NC3=NCCCN3)C2)c(F)c1 [Example 9, (2S)-Benzenesulfonylamino-3-[3-fluoro-4-{(3R)-(1,4,5,6-tetrahydropyrimidin-2-ylamino)piperidin1-yl}benzoylamino]propionic acid]	≤ 1.1 nM	
O=C(NC[C@H](NS(=O)(=O)c1ccccc1)C(=O)O)c1ccc(N2CCC[C@H](NC3=NCCCN3)C2)c(F)c1F [Example 19, (2S)-Benzenesulfonylamino-3-[2,3-difluoro-4-{(3S)-(1,4,5,6-tetrahydropyrimidin-2-ylamino)piperidin-1-yl}benzoylamino]propionic acid]	≤ 1.1 nM	IC50 [2, 6]: ≤ 1 nM
O=C(NC[C@H](NS(=O)(=O)c1ccccc1)C(=O)O)c1ccc(N2CCC[C@H](NC3=NCCCN3)C2)c(Cl)c1 [Example 22, (2S)-Benzenesulfonylamino-3-[3-chloro-4-{(3S)-(1,4,5,6-tetrahydropyrimidin-2-ylamino)piperidin-1-yl}benzoylamino]propionic acid]	≤ 1.1 nM	
O=C(NC[C@H](NS(=O)(=O)c1ccccc1)C(=O)O)c1ccc(N2CCC[C@H](N=C3NCCCN3)C2)cc1 [Example 25, (2S)-Benzenesulfonylamino-3-[4-{(3S)-(1,4,5,6-tetrahydropyrimidin-2-ylamino)piperidin-1-yl}benzoylamino]propionic acid]	≤ 1.1 nM	IC50 [2, 7]: ≤ 1 nM; IC50 [4]: 56 nM
O=C(NC[C@H](NS(=O)(=O)c1ccccc1)C(=O)O)c1ccc(N2CCC[C@H](Nc3ccccn3)C2)cc1 [Example 27, (2S) -Benzenesulfonylamino-3-[4-{(3S)-(pyridin-2-ylamino)piperidin-1-yl}-benzoylamino]propionic acid]	≤ 1.1 nM	IC50 [2, 6]: ≤ 1 nM
O=C(NC[C@H](NS(=O)(=O)c1ccccc1)C(=O)O)c1ccc(N2CCC[C@H](N=C3NCCCN3)C2)cc1F [Example 30, (2S)-Benzenesulfonylamino-3-[2-fluoro-4-{(3S)-(1,4,5,6-tetrahydropyrimidin-2-ylamino)piperidin-1-yl}benzoylamino]propionic acid]	≤ 1.1 nM	IC50 [5]: 13 nM; IC50 [2, 7]: ≤ 1 nM
O=C(NC[C@H](NS(=O)(=O)c1cccs1)C(=O)O)c1ccc(N2CCC[C@H](N=C3NCCCN3)C2)cc1 [Example 44, 3-[4-{(3S)-(1,4,5,6-Tetrahydropyrimidin-2-ylamino)piperidin-1-yl}benzoylamino]-(2S)-{(thiophene-2-sulfonyl)amino}propionic acid]	≤ 1.1 nM	IC50 [2, 7]: ≤ 1 nM
